Source: patent US12291519B2, “2-hydroxycycloalkane-1-carbamoyl” (Idorsia Pharmaceuticals Ltd, priority 2019, dated 2025)

Assays:
human Gal-3 (hGal-3) = human Gal-3 (hGal-3) (Homo sapiens (Human), UniProt P17931); assay: Competitive binding assay: biotinylated hGal-3 binding to microplate-adsorbed asialofetuin (ASF); conditions: Activity on hGal-3; binding of biotinylated hGal-3 to ASF-coated plates; mean values
Method in brief: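 Serially diluted compounds competed with biotinylated human Gal-3 for binding to plate-adsorbed asialofetuin over 3 h at 4 °C. Bound Gal-3 was detected with streptavidin-peroxidase (80 ng/mL, 1 h, 4 °C) and ABTS substrate. IC50 values are means of several measurements.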

human Gal-1 (hGal-1) = assay: Competitive binding assay: biotinylated hGal-1 binding to microplate-adsorbed asialofetuin (ASF); conditions: Activity on hGal-1; binding of biotinylated hGal-1 to ASF-coated plates; mean values
Method in brief: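 Biotinylated hGal-1 (300–1000 ng/mL; optionally a cysteine-free all-serine variant) incubated 3 h at 4 °C with compound on asialofetuin-coated plates, then streptavidin-peroxidase 1 h at 4 °C. ABTS readout at OD 410 nm after 30–45 min; IC50 given as mean of several runs.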

Sequence of human Gal-3 (hGal-3) (P17931 whole entry): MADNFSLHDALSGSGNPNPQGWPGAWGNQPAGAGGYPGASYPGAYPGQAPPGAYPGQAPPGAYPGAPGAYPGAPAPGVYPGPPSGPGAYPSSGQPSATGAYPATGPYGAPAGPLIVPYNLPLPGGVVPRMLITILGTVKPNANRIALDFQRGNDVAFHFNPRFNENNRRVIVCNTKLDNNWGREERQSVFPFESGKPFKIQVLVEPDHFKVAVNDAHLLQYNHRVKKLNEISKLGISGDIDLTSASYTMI
Sequence of human Gal-1 (hGal-1) (P09382 2-135 limits assumed): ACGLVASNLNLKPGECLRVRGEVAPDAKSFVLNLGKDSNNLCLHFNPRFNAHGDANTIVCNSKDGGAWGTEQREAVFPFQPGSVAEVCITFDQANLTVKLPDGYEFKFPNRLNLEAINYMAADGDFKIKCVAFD

Compound | IC50 (human Gal-3 (hGal-3)) [µM] | IC50 (human Gal-1 (hGal-1)) [µM]
O=C(CO[C@@H]1[C@@H](n2cc(-c3cc(F)c(F)c(F)c3)nn2)[C@@H](O)[C@@H](CO)O[C@H]1C(=O)N(c1cc(Cl)cc(Cl)c1)[C@H]1CCCC[C@@H]1O)N1CC[C@H](O)C1 [Example 125, (2R,3R,4S,5R,6R)—N-(3,5-dichlorophenyl)-5-hydroxy-N-((1S,2S)-2-hydroxycyclohexyl)-6-(hydroxymethyl)-3-(2-((S)-3-hydroxypyrrolidin-1-yl)-2-oxoethoxy)-4-(4-(3,4,5-trifluorophenyl)-1H-1,2,3-triazol-1-yl)tetrahydro-2H-pyran-2-carboxamide] | 0.009 | 0.134
CO[C@@H]1[C@@H](n2cc(-c3cc(F)c(F)c(F)c3)nn2)[C@@H](O)[C@@H](CO)O[C@H]1C(=O)N(c1ccc2nc(C)[nH]c2c1)[C@H]1CCCC[C@@H]1O [Example 123, (2R,3R,4S,5R,6R)-5-hydroxy-N-((1S,2S)-2-hydroxycyclohexyl)-6-(hydroxymethyl)-3-methoxy-N-(2-methyl-1H-benzo[d]imidazol-6-yl)-4-(4-(3,4,5-trifluorophenyl)-1H-1,2,3-triazol-1-yl)tetrahydro-2H-pyran-2-carboxamide] | 0.085 | 5.88
CO[C@@H]1[C@@H](n2cc(-c3cc(F)c(F)c(F)c3)nn2)[C@@H](O)[C@@H](CO)O[C@H]1C(=O)N(c1cc(C)cc(F)c1)[C@H]1CCCC[C@@H]1O [Example 119, (2R,3R,4S,5R,6R)-N-(3-fluoro-5-methylphenyl)-5-hydroxy-N-((1S,2S)-2-hydroxycyclohexyl)-6-(hydroxymethyl)-3-methoxy-4-(4-(3,4,5-trifluorophenyl)-1H-1,2,3-triazol-1-yl)tetrahydro-2H-pyran-2-carboxamide] | 0.03 | 1.83
CC(=O)O[C@@H]1[C@@H](n2cc(-c3cc(F)c(Cl)c(F)c3)nn2)[C@@H](O)[C@@H](CO)O[C@H]1C(=O)N(Cc1ccnn1C)[C@H]1CCCC[C@@H]1O [Example 50, (2R,3R,4S,5R,6R)-4-(4-(4-chloro-3,5-difluorophenyl)-1H-1,2,3-triazol-1-yl)-5-hydroxy-2-(((1S,2S)-2-hydroxycyclohexyl)((1-methyl-1H-pyrazol-5-yl)methyl)carbamoyl)-6-(hydroxymethyl)tetrahydro-2H-pyran-3-yl acetate] | 0.053 | 7.58
CO[C@@H]1[C@@H](n2cc(-c3cc(F)cc(F)c3)nn2)[C@@H](O)[C@@H](CO)O[C@H]1C(=O)N(c1cccc(C#N)c1)[C@H]1CCCC[C@@H]1O [Example 86, (2R,3R,4S,5R,6R)-N-(3-cyanophenyl)-4-(4-(3,5-difluorophenyl)-1H-1,2,3-triazol-1-yl)-5-hydroxy-N-((1S,2S)-2-hydroxycyclohexyl)-6-(hydroxymethyl)-3-methoxytetrahydro-2H-pyran-2-carboxamide] | 0.111 | 1.85
CO[C@@H]1[C@@H](n2cc(-c3cc(F)cc(Cl)c3)nn2)[C@@H](O)[C@@H](CO)O[C@H]1C(=O)N(c1ccc(F)c(F)c1)[C@H]1CCCC[C@@H]1O [Example 134, (2R,3R,4S,5R,6R)-4-(4-(3-chloro-5-fluorophenyl)-1H-1,2,3-triazol-1-yl)-N-(3,4-difluorophenyl)-5-hydroxy-N-((1S,2S)-2-hydroxycyclohexyl)-6-(hydroxymethyl)-3-methoxytetrahydro-2H-pyran-2-carboxamide] | 0.063 | 0.761
CO[C@@H]1[C@@H](n2cc(-c3ccc(Br)cc3)nn2)[C@@H](O)[C@@H](CO)O[C@H]1C(=O)N(c1cc(Cl)cc(C#N)c1)[C@H]1CCCC[C@@H]1O [Example 202, (2R,3R,4S,5R,6R)-4-(4-(4-bromophenyl)-1H-1,2,3-triazol-1-yl)-N-(3-chloro-5-cyanophenyl)-5-hydroxy-N-((1S,2S)-2-hydroxycyclohexyl)-6-(hydroxymethyl)-3-methoxytetrahydro-2H-pyran-2-carboxamide] | 0.021 | 0.341
O=C([C@@H]1O[C@H](CO)[C@H](O)[C@H](n2cc(-c3cc(F)c(F)c(F)c3)nn2)[C@H]1O)N(Cc1ccc(Cl)cc1)[C@H]1CCCC[C@@H]1O [Example 5, (2R,3R,4S,5R,6R)-N-(4-chlorobenzyl)-3,5-dihydroxy-N-((1S,2S)-2-hydroxycyclohexyl)-6-(hydroxymethyl)-4-(4-(3,4,5-trifluorophenyl)-1H-1,2,3-triazol-1-yl)tetrahydro-2H-pyran-2-carboxamide] | 0.174 | 18.2

The remaining molecules from weak to strong by IC50 (human Gal-3 (hGal-3)), led by results:

IC50 (human Gal-3 (hGal-3)) [µM] | IC50 (human Gal-1 (hGal-1)) [µM] | Compound
0.301 | 22.8 | O=C([C@@H]1O[C@H](CO)[C@H](O)[C@H](n2cc(-c3cc(F)c(F)c(F)c3)nn2)[C@H]1O)N(Cc1cccc(Cl)c1)[C@H]1CCCC[C@@H]1O [Example 2, (2R,3R,4S,5R,6R)-N-(3-chlorobenzyl)-3,5-dihydroxy-N-((1S,2S)-2-hydroxycyclohexyl)-6-(hydroxymethyl)-4-(4-(3,4,5-trifluorophenyl)-1H-1,2,3-triazol-1-yl)tetrahydro-2H-pyran-2-carboxamide]
0.28 | 4.92 | CO[C@@H]1[C@@H](n2cc(-c3cc(F)c(F)c(F)c3)nn2)[C@@H](O)[C@@H](CO)O[C@H]1C(=O)N(Cc1ncccc1C(F)(F)F)[C@H]1CCCC[C@@H]1O [Example 25, (2R,3R,4S,5R,6R)-5-hydroxy-N-((1S,2S)-2-hydroxycyclohexyl)-6-(hydroxymethyl)-3-methoxy-N-((3-(trifluoromethyl)pyridin-2-yl)methyl)-4-(4-(3,4,5-trifluorophenyl)-1H-1,2,3-triazol-1-yl)tetrahydro-2H-pyran-2-carboxamide]
0.154 | 6.5 | O=C([C@@H]1O[C@H](CO)[C@H](O)[C@H](n2cc(-c3cc(F)c(F)c(F)c3)nn2)[C@H]1O)N(Cc1ccccc1)[C@H]1CCCC[C@@H]1O [Example 1, (2R,3R,4S,5R,6R)-N-benzyl-3,5-dihydroxy-N-((1S,2S)-2-hydroxycyclohexyl)-6-(hydroxymethyl)-4-(4-(3,4,5-trifluorophenyl)-1H-1,2,3-triazol-1-yl)tetrahydro-2H-pyran-2-carboxamide]
0.097 | 6.83 | CO[C@@H]1[C@@H](n2cc(-c3cc(F)c(F)c(F)c3)nn2)[C@@H](O)[C@@H](CO)O[C@H]1C(=O)N(c1ccc2ccccc2c1)[C@H]1CCCC[C@@H]1O [Example 197, (2R,3R,4S,5R,6R)-5-hydroxy-N-((1S,2S)-2-hydroxycyclohexyl)-6-(hydroxymethyl)-3-methoxy-N-(naphthalen-2-yl)-4-(4-(3,4,5-trifluorophenyl)-1H-1,2,3-triazol-1-yl)tetrahydro-2H-pyran-2-carboxamide]
0.076 | 2.67 | CC(=O)O[C@@H]1[C@@H](n2cc(-c3cc(F)c(F)c(F)c3)nn2)[C@@H](O)[C@@H](CO)O[C@H]1C(=O)N(Cc1ccnn1C)[C@H]1CCCC[C@@H]1O [Example 43, (2R,3R,4S,5R,6R)-5-hydroxy-2-(((1S,2S)-2-hydroxycyclohexyl)((1-methyl-1H-pyrazol-5-yl)methyl)carbamoyl)-6-(hydroxymethyl)-4-(4-(3,4,5-trifluorophenyl)-1H-1,2,3-triazol-1-yl)tetrahydro-2H-pyran-3-yl acetate]
0.071 | 0.53 | CO[C@@H]1[C@@H](n2cc(-c3cc(F)cc(Br)c3)nn2)[C@@H](O)[C@@H](CO)O[C@H]1C(=O)N(c1cc(F)cc(Cl)c1)[C@H]1CCCC[C@@H]1O [Example 147, (2R,3R,4S,5R,6R)-4-(4-(3-bromo-5-fluorophenyl)-1H-1,2,3-triazol-1-yl)-N-(3-chloro-5-fluorophenyl)-5-hydroxy-N-((1S,2S)-2-hydroxycyclohexyl)-6-(hydroxymethyl)-3-methoxytetrahydro-2H-pyran-2-carboxamide]
0.058 | 11.2 | CC(=O)O[C@@H]1[C@@H](n2cc(-c3cc(F)c(C)c(F)c3)nn2)[C@@H](O)[C@@H](CO)O[C@H]1C(=O)N(Cc1ccnn1C)[C@H]1CCCC[C@@H]1O [Example 51, (2R,3R,4S,5R,6R)-4-(4-(3,5-difluoro-4-methylphenyl)-1H-1,2,3-triazol-1-yl)-5-hydroxy-2-(((1S,2S)-2-hydroxycyclohexyl)((1-methyl-1H-pyrazol-5-yl)methyl)carbamoyl)-6-(hydroxymethyl)tetrahydro-2H-pyran-3-yl acetate]
0.056 | 1.56 | COc1cc(C#N)cc(N(C(=O)[C@@H]2O[C@H](CO)[C@H](O)[C@H](n3cc(-c4cc(F)cc(Cl)c4)nn3)[C@H]2OC)[C@H]2CCCC[C@@H]2O)c1 [Example 141, (2R,3R,4S,5R,6R)-4-(4-(3-chloro-5-fluorophenyl)-1H-1,2,3-triazol-1-yl)-N-(3-cyano-5-methoxyphenyl)-5-hydroxy-N-((1S,2S)-2-hydroxycyclohexyl)-6-(hydroxymethyl)-3-methoxytetrahydro-2H-pyran-2-carboxamide]
0.031 | 0.254 | CO[C@@H]1[C@@H](n2cc(-c3cc(F)c(F)c(F)c3)nn2)[C@@H](O)[C@@H](CO)O[C@H]1C(=O)N(c1ccc2nc(C)sc2c1)[C@H]1CCCC[C@@H]1O [Example 94, (2R,3R,4S,5R,6R)-5-hydroxy-N-((1S,2S)-2-hydroxycyclohexyl)-6-(hydroxymethyl)-3-methoxy-N-(2-methylbenzo[d]thiazol-6-yl)-4-(4-(3,4,5-trifluorophenyl)-1H-1,2,3-triazol-1-yl)tetrahydro-2H-pyran-2-carboxamide]
0.02 | 2.66 | CO[C@@H]1[C@@H](n2cc(-c3cc(F)c(F)c(F)c3)nn2)[C@@H](O)[C@@H](CO)O[C@H]1C(=O)N(Cc1cccc(Cl)c1)[C@H]1CCCC[C@@H]1O [Example 54]
